Laboratory results taken from patent US8586611B2 (priority 2005, dated 2013).

Legend:
Type in all cases: in vivo
[1] = test system: Erysiphe graminis f. sp. tritici; assay: Test E: wheat powdery mildew, spray the day before inoculation (disease rating, 100 = 100% disease control)
Source text: (§1) The test compounds were first dissolved in acetone in an amount equal to 3% of the final volume and then suspended at the desired concentration (in ppm) in acetone and purified water (50/50 mix by volume) containing 250 ppm of the surfactant Trem® 014 (polyhydric alcohol esters). The resulting test suspensions were then used in tests A-E. Spraying a 200 ppm test suspension to the point of run-off on the test plants was the equivalent of a rate of 500 g/ha.
The test suspension was sprayed to the point of run-off on wheat seedlings. The following day the seedlings were inoculated with a spore dust of Erysiphe graminis f. sp. tritici, (the causal agent of wheat powdery mildew) and incubated in a growth chamber at 20° C. for 7 days, after which disease ratings were made.
(§2) Results for Tests A-F are given in Table A. In the table, a rating of 100 indicates 100% disease control and a rating of 0 indicates no disease control (relative to the controls). A dash (-) indicates no test results.

Plasmopara viticola = assay: Test B: grape downy mildew, spray 24 h after inoculation (disease rating, 100 = 100% disease control)
Source text: as §1
Grape seedlings were inoculated with a spore suspension of Plasmopara viticola (the causal agent of grape downy mildew) and incubated in a saturated atmosphere at 20° C. for 24 h. After a short drying period, the test suspension was sprayed to the point of run-off on the grape seedlings and then moved to a growth chamber at 20° C. for 5 days, after which the test units were placed back into a saturated atmosphere at 20° C. for 24 h. Upon removal, disease ratings were made.
as §2

Phytophthora infestans [2] = assay: whole plant or invertebrate; conditions: tomato late blight
Phytophthora infestans [3] = assay: whole plant or invertebrate; conditions: tomato late blight; remark: listed apart in the source
[4] = spray the day before inoculation, tested at 40 ppm
[5] = spray the day before inoculation, compounds without asterisk (not 40 or 10 ppm)
[6] = spray 24 h after inoculation, compounds without asterisk (not 40 or 10 ppm)
[7] = spray 17 h after inoculation, compounds without asterisk (not 40 or 10 ppm)

Row | SMILES | Test E disease rating (100 = 100% disease control, 0 = no disease control) [1, 5] [%] | Test B disease rating (100 = 100% disease control, 0 = no disease control) (Plasmopara viticola; [6]) [%] | Test D disease rating (100 = 100% disease control, 0 = no disease control) (Phytophthora infestans [2]; [7]) [%] | Test C disease rating (100 = 100% disease control, 0 = no disease control) (Phytophthora infestans [3]; [5]) [%] | further results
1 | Cc1cc(C(F)(F)F)nn1CC(=O)N1C=CC(c2nc(C(=O)N(C)[C@@H]3CCCc4ccccc43)cs2)CC1 (stereo partly drawn) [Compound 315, N-methyl-2-[1,2,3,4-tetrahydro-1-[[5-methyl-3-(trifluoromethyl)-1H-pyrazol-1-yl]acetyl]-4-pyridinyl]-N-[(1R)-1,2,3,4-tetrahydro-1-naphthalenyl]-4-thiazolecarboxamide] | – | – | – | – | Test E disease rating (100 = 100% disease control, 0 = no disease control) ([1]; sprayed the day before inoculation, 7 days at 20° C., tested at 10 ppm (**)): 0; Test B disease rating (100 = 100% disease control, 0 = no disease control) (Plasmopara viticola; sprayed 24 h after inoculation, tested at 10 ppm (**)): 72; Test D disease rating (100 = 100% disease control, 0 = no disease control) (Phytophthora infestans [2]; sprayed 17 h after inoculation, tested at 10 ppm (**)): 88; Test C disease rating (100 = 100% disease control, 0 = no disease control) (Phytophthora infestans [3]; sprayed the day before inoculation, tested at 10 ppm (**)): 100
2 | C[C@H](c1ccccc1)N(C)C(=O)c1csc(C2CCN(C(=O)Cc3cccc(F)c3F)CC2)n1 [compound 46] | – | – | – | – | Test E disease rating (100 = 100% disease control, 0 = no disease control) [1, 4]: 0%; Test B disease rating (100 = 100% disease control, 0 = no disease control) (Plasmopara viticola; spray 24 h after inoculation, tested at 40 ppm): 0%; Test D disease rating (100 = 100% disease control, 0 = no disease control) (Phytophthora infestans [2]; spray 17 h after inoculation, tested at 40 ppm): 0%; Test C disease rating (100 = 100% disease control, 0 = no disease control) (Phytophthora infestans [3]; [4]): 0%
3 | COc1ccccc1CC(=O)N1CCN(c2nc(C(=O)N(C)[C@H](C)c3ccccc3)co2)CC1 [compound 53] | 0 | 20 | 89 | 100 | –
4 | Cc1ccc(C)c(CC(=O)N2CCC(c3nc(C(=O)N(C)[C@H](C)c4cccc(C(F)(F)F)c4)cs3)CC2)c1 [compound 56] | 0 | 31 | 0 | 93 | –
5 | Cc1cccc(CC(=O)N2CCC(c3nc(C(=O)N(C)C(C)c4ncc(Cl)cc4Cl)cs3)CC2)c1 (stereo not drawn) [compound 61] | 0 | 2 | 0 | 69 | –
6 | CC(c1cccnc1)N(C)C(=O)c1csc(C2CCN(C(=O)Cc3cccc(C(F)(F)F)c3)CC2)n1 (stereo not drawn) [compound 66] | 0 | 2 | 42 | 54 | –
7 | C[C@H](c1ccccc1)N(C)C(=O)c1csc(C2CCN(C(=O)Cn3cc(Br)cn3)CC2)n1 [compound 71] | 0 | 34 | 0 | 74 | –
8 | Cc1ccn(CC(=O)N2CCC(c3nc(C(=O)N(C)[C@H](C)c4ccccc4)cs3)CC2)n1 [compound 72] | 0 | 1 | 66 | 91 | –
9 | Cc1cnn(CC(=O)N2CCC(c3nc(C(=O)N(C)[C@H](C)c4ccccc4)cs3)CC2)c1 [compound 73] | 0 | 2 | 9 | 75 | –
10 | CC(c1ccncc1)N(C)C(=O)c1csc(C2CCN(C(=O)Cc3cccc(C(F)(F)F)c3)CC2)n1 (stereo not drawn) [compound 76] | 0 | 0 | 0 | 79 | –
11 | CCOc1ccccc1CC(=O)N1CCC(c2nc(C(=O)N(C)[C@H](C)c3ccccc3)cs2)CC1 [compound 78] | 0 | 100 | 46 | 78 | –
12 | CCOc1cccc(CC(=O)N2CCC(c3nc(C(=O)N(C)[C@H](C)c4ccccc4)cs3)CC2)c1 [compound 79] | 0 | 82 | 0 | 77 | –
13 | C[C@H](c1ccccc1)N(C)C(=O)c1csc(C2CCN(C(=O)Cc3cccnc3)CC2)n1 [compound 83] | 0 | 14 | 0 | 31 | –
14 | C[C@H](c1ccccc1)N(C)C(=O)c1csc(C2CCN(C(=O)Cc3ccncc3)CC2)n1 [compound 84] | 0 | 41 | 0 | 44 | –
15 | CCCCC(c1ccccc1)N(C)C(=O)c1csc(C2CCN(C(=O)Cc3cc(C)ccc3C)CC2)n1 (stereo not drawn) [compound 85] | 32 | 99 | 9 | 99 | –
16 | C[C@H](c1ccccc1)N(C)C(=O)c1csc(C2CCN(C(=O)Cc3cccs3)CC2)n1 [compound 88] | 0 | 43 | 0 | 33 | –
17 | COC(=O)Cc1ccccc1CC(=O)N1CCC(c2nc(C(=O)N(C)[C@H](C)c3ccccc3)cs2)CC1 [compound 90] | 0 | 17 | 9 | 26 | –
18 | Cc1nc(CC(=O)N2CCC(c3nc(C(=O)N(C)[C@H](C)c4ccccc4)cs3)CC2)cs1 [compound 91] | 0 | 16 | 79 | 99 | –
19 | C[C@H](c1ccccc1)N(C)C(=O)c1csc(C2CCN(C(=O)Cc3cc(C(C)(C)C)no3)CC2)n1 [compound 93] | 0 | 9 | 0 | 26 | –
20 | Cc1ccc(C)c(CC(=O)N2CCC(c3nc(C(=O)N(C)C(c4ccccc4)C(C)C)cs3)CC2)c1 (stereo not drawn) [compound 96] | 0 | 98 | 49 | 100 | –
21 | Cc1ccc(C)c(CC(=O)N2CCC(c3nc(C(=O)N(C)C(CC(C)C)c4ccccc4)cs3)CC2)c1 (stereo not drawn) [compound 97] | 0 | 53 | 0 | 86 | –
